In patent US8796293B2, “Purine and deazapurine derivatives as pharmaceutical compounds” (Astex Therapeutics Limited, priority 2006, dated 2014):
pIC50: −log10 of the molar value. Like-named read-outs stand apart in the source and are kept apart here.

What was measured:
ROCK-II (h) = ROCK-II (h) (Homo sapiens (Human), UniProt O75116); test: ROCK-II (h) assay, radiometric filter assay; assay type: biochemical; settings: read-out: IC50 (anti-ROCK-II activity)
Method: (specific activity approx. 500 cpm/pmol, concentration as required). The reaction is initiated by the addition of the MgATP mix. After incubation for 40 minutes at room temperature, the reaction is stopped by the addition of 5 μl of a 3% phosphoric acid solution. 10 μl of the reaction is then spotted onto a P30 filtermat and washed three times for 5 minutes in 75 mM phosphoric acid and once in methanol prior to drying and scintillation counting.
The compound of various examples described above were tested for anti-ROCK-II activity (assay as described above): […]

P70S6 kinase (T412E) = P70S6 kinase (T412E) (Homo sapiens (Human), UniProt P23443, T412E); test: P70S6 radiometric assay; assay type: biochemical
Method: P70S6 enzyme is bought from Upstate and used at 2 nM in the assay. […] In the phosphoryl transfer reaction, the ^33P-γ phosphate from ATP is transferred to the serine residue. The reaction mixture is transferred to a phosphocellulose filter plate where the peptide binds and the unused ATP is washed away. After washing, scintillant is added and the incorporated activity measured by scintillation counting.
ATP (10 mM stock) added fresh from concentrated stocks.
Compounds—prepare a dilution curve in DMSO in a polypropylene 96 well plate to 40× final assay concentration (final DMSO 2.5%).
In a polypropylene 96 well plate add in order: • 5 μl compound • 10 μl substrate mix • 10 μl enzyme mix
Controls are “no compound” (DMSO only) and “no enzyme” (use 10 μl of the enzyme mix prior to adding enzyme). Cover with a plate seal (TopSeal A—Packard) or plastic lid from filter plate (moderate radiation barrier). Mix by gentle shaking. Incubate at room temperature for 50 minutes. Stop the reaction by adding 20 μl of 2% orthophosphoric acid.
Pre-wet the wells of a Millipore MAPH NOB plate with 50 μl of 0.5% orthophosphoric acid wash buffer. Filter the liquid through on a Millipore vacuum filtration unit. Transfer the whole of the stopped reaction to the wells. Filter through. Wash twice with 200 μl of 0.5% orthophosphoric acid wash buffer. Vacuum to near dryness. Remove the plate support and allow to the filters to dry further on tissue paper. Snap the plate into an adapter for the Packard TopCount. Add 20 μl of Microscint 20 scintillant, seal with a sheet of Topseal A and count for 30s on the TopCount.

blood pressure = settings: cited from earlier work
[1] = rat, in vivo, po, 30 mg/kg; cited from earlier work
[2] = [γ-33P-ATP], 40 minutes at room temperature
[3] = enzyme 2 nM, ATP approximately 15 μM, 50 minutes at room temperature, read-out: IC50 (anti-P70S6K activity)

Sequence of ROCK-II (h) (O75116 whole entry): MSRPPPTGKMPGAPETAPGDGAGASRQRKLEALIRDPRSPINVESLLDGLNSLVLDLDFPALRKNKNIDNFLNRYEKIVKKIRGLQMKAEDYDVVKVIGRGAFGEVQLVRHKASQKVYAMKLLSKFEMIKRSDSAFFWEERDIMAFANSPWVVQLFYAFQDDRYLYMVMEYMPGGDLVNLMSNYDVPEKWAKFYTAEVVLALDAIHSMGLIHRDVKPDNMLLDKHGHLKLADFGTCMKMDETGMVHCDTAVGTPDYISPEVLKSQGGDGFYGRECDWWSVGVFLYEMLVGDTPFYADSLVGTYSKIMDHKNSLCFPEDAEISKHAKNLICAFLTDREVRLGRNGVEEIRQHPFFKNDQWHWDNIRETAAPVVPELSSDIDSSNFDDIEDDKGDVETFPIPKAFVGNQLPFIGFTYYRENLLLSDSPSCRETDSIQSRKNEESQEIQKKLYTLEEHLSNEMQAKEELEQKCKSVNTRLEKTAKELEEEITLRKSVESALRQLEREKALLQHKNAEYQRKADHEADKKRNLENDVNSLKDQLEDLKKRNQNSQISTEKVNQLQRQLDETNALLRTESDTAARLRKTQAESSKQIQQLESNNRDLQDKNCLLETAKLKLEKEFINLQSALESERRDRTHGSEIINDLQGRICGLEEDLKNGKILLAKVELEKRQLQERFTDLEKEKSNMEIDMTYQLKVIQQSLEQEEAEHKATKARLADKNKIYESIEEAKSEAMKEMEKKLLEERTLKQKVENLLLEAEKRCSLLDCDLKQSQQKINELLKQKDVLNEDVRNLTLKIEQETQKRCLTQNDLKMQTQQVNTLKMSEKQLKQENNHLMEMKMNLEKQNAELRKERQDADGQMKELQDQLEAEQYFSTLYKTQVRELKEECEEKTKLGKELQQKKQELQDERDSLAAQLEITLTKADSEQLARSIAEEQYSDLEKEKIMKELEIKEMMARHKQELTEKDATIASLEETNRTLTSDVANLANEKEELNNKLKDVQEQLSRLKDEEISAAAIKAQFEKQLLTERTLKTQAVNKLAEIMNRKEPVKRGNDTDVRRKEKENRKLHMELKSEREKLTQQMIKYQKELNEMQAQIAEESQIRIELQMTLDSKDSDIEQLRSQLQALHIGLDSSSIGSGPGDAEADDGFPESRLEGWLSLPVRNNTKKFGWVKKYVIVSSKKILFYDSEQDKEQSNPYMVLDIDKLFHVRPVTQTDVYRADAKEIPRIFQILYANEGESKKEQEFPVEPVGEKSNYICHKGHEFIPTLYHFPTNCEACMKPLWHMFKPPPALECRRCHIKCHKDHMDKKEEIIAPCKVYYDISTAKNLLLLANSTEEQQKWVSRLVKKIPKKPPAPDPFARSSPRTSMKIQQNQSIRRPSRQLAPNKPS
Sequence of P70S6 kinase (T412E) (P23443 whole entry T412E): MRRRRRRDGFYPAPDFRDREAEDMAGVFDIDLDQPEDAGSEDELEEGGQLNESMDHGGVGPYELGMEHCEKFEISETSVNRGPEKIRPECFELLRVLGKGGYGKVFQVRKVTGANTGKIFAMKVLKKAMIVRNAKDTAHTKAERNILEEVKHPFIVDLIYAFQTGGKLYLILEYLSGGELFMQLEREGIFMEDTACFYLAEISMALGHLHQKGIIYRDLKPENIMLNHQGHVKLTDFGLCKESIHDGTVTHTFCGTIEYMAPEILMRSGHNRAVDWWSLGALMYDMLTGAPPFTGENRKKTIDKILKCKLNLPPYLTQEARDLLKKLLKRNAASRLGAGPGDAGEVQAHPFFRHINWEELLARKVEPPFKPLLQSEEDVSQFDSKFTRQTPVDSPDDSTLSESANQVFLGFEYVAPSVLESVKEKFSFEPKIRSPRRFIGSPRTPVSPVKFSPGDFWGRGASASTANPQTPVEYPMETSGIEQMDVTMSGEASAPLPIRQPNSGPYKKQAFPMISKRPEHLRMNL

SMILES	pIC50 (ROCK-II (h); [2])	pIC50 (P70S6 kinase (T412E); [3])	also measured
NC1(Cc2ccc(Cl)cc2)CCN(c2ccnc3[nH]ccc23)CC1 [Example 54, 4-(4-Chlorobenzyl)-1-(1H-pyrrolo[2,3-b]pyridin-4-yl)-piperidin-4-ylamine]	> 8.00	7.52	
NC1(Cc2ccc(Cl)cc2)CCN(c2ncnc3[nH]ccc23)CC1 [Example 17, 4-(4-Chlorobenzyl)-1-(7H-pyrrolo[2,3-d]pyrimidin-4-yl)piperidin-4-ylamine]	> 6.00	7.03	
NC1CCN(c2ncnc3[nH]c(=O)[nH]c23)CC1 [Example 4, 6-(4-Aminopiperidin-1-yl)-7,9-dihydropurin-8-one]		5.52	pIC50 (ROCK-II (h)): < 6.00
NCC1(c2ccc(OC(F)(F)F)cc2)CCN(c2ncnc3[nH]ccc23)CC1 [Example 30]		8.15	
NC1(Cc2ccccc2Cl)CCN(c2ncnc3[nH]ccc23)CC1 [Example 55, 4-(2-Chlorobenzyl)-1-(7H-pyrrolo[2,3-d]pyrimidin-4-yl)piperidin-4-ylamine]	< 6.00		
NC1(c2ccc(Cl)cc2)CCN(c2ncnc3[nH]ccc23)CC1 [Example 25, 4-(4-Chlorophenyl)-1-(7H-pyrrolo[2,3-d]pyrimidin-4-yl)piperidin-4-ylamine]			pIC50 (P70S6 kinase (T412E)): 7.89
NC1(Cc2ccc(Cl)cc2Cl)CCN(c2ncnc3[nH]ccc23)CC1 [Example 59, 4-(2,4-Dichlorobenzyl)-1-(7H-pyrrolo[2,3-d]pyrimidin-4-yl)piperidin-4-ylamine]		7.23	pIC50 (ROCK-II (h)): > 7.52
C[C@@H](N)[C@H]1CC[C@H](C(=O)Nc2ccncc2)CC1 [Example Y-27632]			effect on blood pressure (blood pressure; hypertensive rats): reduces blood pressure; effect on blood pressure (blood pressure; normal rats): does not affect blood pressure; toxicity in rats [1]: not toxic
